Consider 7 compounds from ChEMBL document CHEMBL4000250, “Synthesis of new derivatives of 21-imidazolyl-16-dehydropregnenolone as inhibitors of 5α-reductase 2 and with cytotoxic activity in cancer cells” (Bioorg Med Chem, 2017).

pIC50: −log10 of the molar value. Active and inactive are the calls of the source. The calls are words filed in the database; no cut-off is given here.

In data set [1] the test system is MCF7. Description: Cytotoxicity against human MCF7 cells assessed as growth inhibition at 50 uM after 48 hrs by sulforhodamine B assay relative to control. It is filed as functional. The following applies: for inhibition of growth at 50 µM: MCF7, 48 h, read-out: GI.
Data set [2] deals with Syrian golden hamster. Description: Hyperplasia activity in castrated golden hamster assessed as seminal vesicles weight at 2 mg/kg, sc co-administered with testosterone for 6 days (reference value: 200.6 +/- 55 mg). Type of data set: functional, Mesocricetus auratus.
For data set [3], the target named is T1, 3-oxo-5-alpha-steroid 4-dehydrogenase 1 (Rattus norvegicus, UniProt P24008).
T1 sequence (P24008 whole entry): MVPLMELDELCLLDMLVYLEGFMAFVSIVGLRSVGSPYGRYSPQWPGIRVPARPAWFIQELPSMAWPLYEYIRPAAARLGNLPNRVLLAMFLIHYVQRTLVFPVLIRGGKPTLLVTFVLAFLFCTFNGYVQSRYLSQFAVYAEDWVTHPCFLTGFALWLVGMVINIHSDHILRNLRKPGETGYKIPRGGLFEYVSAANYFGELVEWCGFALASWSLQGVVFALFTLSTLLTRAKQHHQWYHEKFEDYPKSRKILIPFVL
In words: Inhibition of rat liver microsomal 5-alpha reductase 1 assessed as decrease in conversion of testosterone to dihydrotestosterone by chromatographic method.

For data set [4], the system named is Syrian golden hamster. Description: Hyperplasia activity in castrated golden hamster assessed as diameter of pigmented spot of flank organs at 2 mg/kg, sc administered for 6 days (reference value: 5.65 +/- 1.12 mm). It is filed as functional, Mesocricetus auratus.
Data set [5] has as its system PC-3. In words: Cytotoxicity against human PC3 cells assessed as growth inhibition at 50 uM after 48 hrs by sulforhodamine B assay relative to control. Type of data set: functional. The following applies: for inhibition of growth at 50 µM: PC-3, 48 h, read-out: GI.
Data set [6] has as its system Syrian golden hamster. Description: Hyperplasia activity in castrated golden hamster assessed as prostate weight at 2 mg/kg, sc co-administered with testosterone for 6 days (reference value: 98 +/- 12.6 mg). Type of data set: functional, Mesocricetus auratus.
For data set [7], the system named is Syrian golden hamster. In words: Toxicity in castrated golden hamster at 2 mg/kg, sc co-administered with testosterone for 6 days. Type of data set: organism-based, Mesocricetus auratus. The following applies: in vivo, 144 h.
Data set [8] has as its target T2, 3-oxo-5-alpha-steroid 4-dehydrogenase 2 (Homo sapiens, UniProt P31213).
T2 sequence (P31213 whole entry): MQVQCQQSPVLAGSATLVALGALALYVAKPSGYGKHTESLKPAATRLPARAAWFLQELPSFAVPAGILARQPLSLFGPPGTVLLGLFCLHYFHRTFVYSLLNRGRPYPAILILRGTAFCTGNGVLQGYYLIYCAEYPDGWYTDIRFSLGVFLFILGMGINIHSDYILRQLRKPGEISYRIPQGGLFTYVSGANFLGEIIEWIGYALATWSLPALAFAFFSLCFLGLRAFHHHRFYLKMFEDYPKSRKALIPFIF
Description: Inhibition of human prostate 5-alpha reductase 2 assessed as decrease in conversion of testosterone to dihydrotestosterone by chromatographic method. The following applies: for pIC50: read-out: IC50.

Data set [9] deals with T3, Androgen receptor (Rattus norvegicus) (UniProt P15207).
T3 sequence (whole entry): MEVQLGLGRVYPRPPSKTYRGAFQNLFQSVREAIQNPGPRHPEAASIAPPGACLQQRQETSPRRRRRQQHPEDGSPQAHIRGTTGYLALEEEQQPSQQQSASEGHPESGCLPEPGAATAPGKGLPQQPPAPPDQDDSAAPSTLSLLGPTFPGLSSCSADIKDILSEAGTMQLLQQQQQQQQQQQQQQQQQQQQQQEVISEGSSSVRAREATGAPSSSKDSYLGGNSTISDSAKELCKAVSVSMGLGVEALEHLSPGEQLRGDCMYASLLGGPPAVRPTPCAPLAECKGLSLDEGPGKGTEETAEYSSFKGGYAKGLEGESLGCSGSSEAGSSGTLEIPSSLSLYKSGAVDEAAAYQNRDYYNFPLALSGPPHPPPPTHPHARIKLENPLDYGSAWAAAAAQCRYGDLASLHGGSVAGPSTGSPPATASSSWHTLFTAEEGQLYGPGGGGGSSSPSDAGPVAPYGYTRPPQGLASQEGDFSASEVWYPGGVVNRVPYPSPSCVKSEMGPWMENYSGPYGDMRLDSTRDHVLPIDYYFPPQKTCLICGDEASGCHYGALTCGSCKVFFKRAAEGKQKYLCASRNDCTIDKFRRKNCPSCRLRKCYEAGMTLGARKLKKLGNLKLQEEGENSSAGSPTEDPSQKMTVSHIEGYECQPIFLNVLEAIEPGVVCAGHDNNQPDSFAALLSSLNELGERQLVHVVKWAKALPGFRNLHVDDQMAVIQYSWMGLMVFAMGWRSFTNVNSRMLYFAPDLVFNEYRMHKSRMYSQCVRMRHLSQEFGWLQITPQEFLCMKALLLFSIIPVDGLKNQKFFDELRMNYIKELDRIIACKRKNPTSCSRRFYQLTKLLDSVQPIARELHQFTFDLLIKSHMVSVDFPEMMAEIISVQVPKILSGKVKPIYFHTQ
In words: Displacement of [3H]-MIB from rat prostate cytosolic androgen receptor by liquid scintillation counting method.

Data set [10] deals with SK-LU-1. Description: Cytotoxicity against human SKLU1 cells assessed as growth inhibition at 50 uM after 48 hrs by sulforhodamine B assay relative to control. As to conditions: for inhibition of growth at 50 µM: SK-LU-1, 48 h, read-out: GI. It is filed as functional.

On to `C[C@]12CC[C@H](OC(=O)C3CC3)CC1=CC[C@@H]1[C@@H]2CC[C@]2(C)C(C(=O)Cn3ccnc3)=CC[C@@H]12`, for which the “growth inhibition (GI)” value in [1], in [5] and in data set [10] was “inactive” in each case. Besides, the Activity is on record as 160.9 mg in [2], 3.4 mm in data set [4], 77.1 mg in data set [6] and “Non-Toxic” in [7]. In [3], the IC50 result is recorded as “Not Active”. Besides, the pIC50 in [8] was 6.15. In addition, the inhibition result in data set [9] was “inactive”.

On to `CCCC(=O)O[C@H]1CC[C@@]2(C)C(=CC[C@@H]3[C@@H]2CC[C@]2(C)C(C(=O)Cn4ccnc4)=CC[C@@H]32)C1`, for which the inhibition of growth at 50 µM is 0% in data set [1], 0% in data set [5] and 25.2% in [10]. In addition, the Activity was 217.45 mg in data set [2], 1.98 mm in data set [4], 83.43 mg in data set [6] and “Non-Toxic” in [7]. In addition, the IC50 entry in [3] and in data set [8] was “Not Active” each time. Further, the inhibition result in data set [9] is “inactive”.

In the case of `C[C@]12CC[C@H](OC(=O)C3CCCC3)CC1=CC[C@@H]1[C@@H]2CC[C@]2(C)C(C(=O)Cn3ccnc3)=CC[C@@H]12`, the “growth inhibition (GI)” value in data set [1], in [5] and in [10] was “inactive” throughout. In addition, the Activity is 143.7 mg in [2], 2 mm in data set [4], 65.1 mg in data set [6] and “Non-Toxic” in [7]. Further, the IC50 result in [3] is given as “Not Active”. The pIC50 in [8] was 7.46. The inhibition entry in [9] was “inactive”.

Consider `C[C@]12CC[C@H](O)CC1=CC[C@@H]1[C@@H]2CC[C@]2(C)C(C(=O)Cn3ccnc3)=CC[C@@H]12`, for which the inhibition of growth at 50 µM worked out at 89.4% in data set [1], 96.2% in data set [5] and 74.8% in [10]. The IC50 entry in [3] is on record as “Not Active”. Moreover, the pIC50 in [8] is 3.93. Further, the inhibition result in [9] is “inactive”.

Take `CCCCCC(=O)O[C@H]1CC[C@@]2(C)C(=CC[C@@H]3[C@@H]2CC[C@]2(C)C(C(=O)Cn4ccnc4)=CC[C@@H]32)C1`: the inhibition of growth at 50 µM was determined as 28.1% in data set [1], 17.2% in data set [5] and 28.5% in [10]. In addition, the Activity is reported as 198.33 mg in data set [2], 3.36 mm in data set [4], 71.85 mg in data set [6] and “Non-Toxic” in [7]. Moreover, the IC50 result in data set [3] and in data set [8] was “Not Active” each time. Moreover, in data set [9], the inhibition result is “inactive”.

For `C[C@]12CC[C@H](OC(=O)C3CCC3)CC1=CC[C@@H]1[C@@H]2CC[C@]2(C)C(C(=O)Cn3ccnc3)=CC[C@@H]12`, the “growth inhibition (GI)” value in data set [1], in [5] and in [10] was “inactive” each time. Further, the Activity is 145.2 mg in data set [2], 3 mm in data set [4], 71.3 mg in [6] and “Non-Toxic” in data set [7]. Also, the IC50 result in [3] is reported as “Not Active”. For the same compound, the pIC50 in data set [8] was 7.12. Besides, in [9], the inhibition entry is “inactive”.

As to `CC(=O)O[C@H]1CC[C@@]2(C)C(=CC[C@@H]3[C@@H]2CC[C@]2(C)C(C(C)=O)=CC[C@@H]32)C1`, the inhibition of growth at 50 µM in data set [1] stood at 25.5%; in [5], 21.4%; in data set [10] it was 12.8%. For the same compound, the IC50 result in [3] and in data set [8] was “Not Active” each time. The inhibition result in data set [9] was “inactive”.
